Data on ten molecules can be found in publication PMC6190829 (Journal of medicinal chemistry, 2018).

For data set [1] the following is noted: cited from earlier work.
Data set [2] deals with T1, Kelch domain of KEAP1 (Homo sapiens, UniProt Q14145). The data set can be described thus: Fluorescence anisotropy. The settings on record: IC50 (nM) (95% CI), fluorescent NRF2 peptide / KEAP1 Kelch domain.
A short description of data set [3]: Kinetic aqueous solubility in buffer pH 7.4. The class given is physicochemical.
The nature of data set [4]: Microsomal stability, mouse liver microsomes. The class given is in vitro ADME. As to conditions: 1 μM, 20 min, NADPH.
Data set [5] deals with HaCaT cells. Briefly: Immunoblot of NRF2, NQO1, GCLM protein levels. The class given is cell-based, human. The settings on record: 10 μM. A general note: In western blotting, separated proteins are transferred to a membrane and probed.
The target in data set [6] is T1, Kelch domain of KEAP1. The data set can be described thus: Surface plasmon resonance assay. (In general: SPR reads the build-up and loss of mass on a sensor chip optically.)
Another data set is described as follows: Solubility in DMSO. It is filed as physicochemical.
For data set [7], the system named is Salmonella typhimurium (TA98, TA100, TA1535, TA1537) and Escherichia coli (WP2 uvrA (pKM101)). The data set can be described thus: Mini-Ames assay, cytotoxicity and overall judgement over all strains. As to conditions: for Cytotoxicity in Mini-Ames assay: 1.5-1000 μg/well, any dose level; for Mutagenicity judgement: Mini-Ames, with and without S9. A general note: The Ames test detects mutagens through reverse mutation in bacteria.

The test system of data set [8] is Salmonella typhimurium (TA98, TA100, TA1535, TA1537). The data set can be described thus: Mini-Ames assay, revertant colonies per strain. The settings on record: for Dose response of revertant increase: 6a: TA98 and TA100.
Data set [9] deals with HaCaT cells. Briefly: NRF2 target gene mRNA expression. It is filed as cell-based, human. As to conditions: 10 μM.
Data set [10] deals with HaCaT cells. The data set can be described thus: Nuclear accumulation of NRF2. The class given is cell-based, human. As to conditions: 10 μM, 6 and 24 hours, vs DMSO control.
[11] abbreviates: with S9 mix, higher dose levels, vs vehicle control.

Values joined by “and” are separate entries in the source; they are usually repeats but may differ in a detail not shown here. Equal values may be shown once. “Also recorded” adds a separate entry of the source.

T1 sequence (Q14145 321-609 limits assumed): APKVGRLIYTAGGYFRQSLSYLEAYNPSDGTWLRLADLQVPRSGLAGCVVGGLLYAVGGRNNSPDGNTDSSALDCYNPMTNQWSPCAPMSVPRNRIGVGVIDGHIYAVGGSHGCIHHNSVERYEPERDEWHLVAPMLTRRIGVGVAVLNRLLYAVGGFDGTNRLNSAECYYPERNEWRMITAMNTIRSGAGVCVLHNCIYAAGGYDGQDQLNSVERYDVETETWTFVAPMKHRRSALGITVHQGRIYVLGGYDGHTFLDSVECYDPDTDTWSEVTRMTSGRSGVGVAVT

As to `Cc1cc(C)c(C)c(S(=O)(=O)Nc2ccc(N3CC[C@H](C(=O)O)C3)c3ccccc23)c1C` [RA-839], in data set [1] (ref Winkel et al.[31]), the In vivo activity entry is “active in vivo only if Phase 1 metabolism were inhibited”. The In vivo metabolism result in data set [1] (ref [31]) was “metabolized quickly in vivo”.
What is called IC50 is the point on the concentration scale where inhibition reaches its midpoint. Higher therefore signals lower potency. For `COc1ccc(S(=O)(=O)N(CC(=O)O)c2cc(-c3ccccc3)cc(N(CC(=O)O)S(=O)(=O)c3ccc(OC)cc3)c2)cc1` [Compound 46, 2,2’-(1,1’-biphenyl]-3,5-diylbis(((4-methoxyphenyl)sulfonyl)azanediyl) diacetic acid], on Kelch domain of KEAP1 [2], the IC50 is over 25000 nM.
Consider `COc1ccc(S(=O)(=O)Nc2ccc(NS(=O)(=O)c3ccc(OC)cc3)c3ccccc23)cc1` [Compound 5], for which the “Aqueous solubility” value in data set [3] is “modest aqueous solubilities”.
In the case of `COc1ccc(S(=O)(=O)N(CC(=O)O)c2ccc(N(CC(=O)O)S(=O)(=O)c3ccc(OC)cc3)c3[nH]ccc23)cc1` [Compound 29, 2,2’-((1H-indole-4,7-diyl)bis(((4-methoxyphenyl)sulfonyl)azanediyl))diacetic acid], the “Stability of the compound” value in “Compound stability” is “unstable”.
Usually Kd stands for the concentration at which binding is half-saturated. For `COc1ccc(S(=O)(=O)Nc2nnc(N(CC(=O)O)S(=O)(=O)c3ccc(OC)cc3)c3ccccc23)cc1` [Compound 34, N-(4-((4-methoxyphenyl)sulfonamido)phthalazin-1-yl)-N-((4-methoxyphenyl)sulfonyl)glycine], the “Compound remaining after incubation, mouse liver microsomes” value in data set [4] was “comparable to the other compounds”. Also, in the data set on HaCaT cells [5] (6 h, vs DMSO), the NQO1 protein level entry is reported as “no increase” and the NRF2 protein level result was “no increase”. For the same molecule, the IC50 on Kelch domain of KEAP1 [2] is 1000 nM and 1100 nM. On Kelch domain of KEAP1 [6], this molecule registered a Kd of over 10000 nM.
As for `COc1ccc(S(=O)(=O)N(CC(N)=O)c2ccc(N(CC(N)=O)S(=O)(=O)c3ccc(OC)cc3)c3ccccc23)cc1` [Compound 6b], in the data set with HaCaT cells [5] (6 h, vs DMSO), the NQO1 protein level result was “modest increase” and the NRF2 protein level entry is on record as “modest increase”. Also, in the data set on HaCaT cells [5] (24 h, vs vehicle), the GCLM protein level entry is recorded as “significantly higher”, the NQO1 protein level result was “Increased” and the NRF2 protein level entry is “Increased”. Further, in [3], the “Aqueous solubility” value was “poor solubility”.
By solubility is commonly meant the dissolved amount per volume that the medium holds. Low values mean little dissolved substance, high ones much dissolved substance. Regarding `COc1ccc(S(=O)(=O)N(CC(=O)O)c2ccc(N(CC(=O)O)S(=O)(=O)c3ccc(OC)cc3)c3ccccc23)cc1` [Compound 6a], the “Compound remaining after incubation, mouse liver microsomes” value in data set [4] is given as “stable”. The solubility in “Solubility in DMSO” was at most 50 mg/mL. Besides, in data set [7], the “Cytotoxicity in Mini-Ames assay” value is listed as “No cytotoxicity” and the Mutagenicity judgement entry is given as “positive for mutagenicity”. Moreover, the “Dose response of revertant increase” value in data set [8] was “Dose response was also observed”. Further, in data set [8] (setting [11]), the “Increase in revertants, TA100” value is given as over 2 fold and the “Increase in revertants, TA1535” value was over 3 fold.
On to `CC1(C)CC[C@]2(C(=O)n3ccnc3)CC[C@]3(C)[C@H](C(=O)C=C4[C@@]5(C)C=C(C#N)C(=O)C(C)(C)[C@@H]5CC[C@]43C)[C@@H]2C1` [CDDO-Im, reference compound], for which, in the data set with HaCaT cells [5] (24 h, vs vehicle), the GCLM protein level result is given as “significantly higher”, the NQO1 protein level entry was “higher” and the NRF2 protein level entry was “higher”.
Turning to `COc1ccc(S(=O)(=O)N(CC(=O)O)c2cnc(N(CC(=O)O)S(=O)(=O)c3ccc(OC)cc3)c3ccccc23)cc1` [Compound 17, 2,2’-(isoquinoline-1,4-diylbis(((4-methoxyphenyl)sulfonyl)azanediyl))diacetic acid], in the data set on HaCaT cells [9], the “SOD mRNA expression (not an NRF2 target gene)” value is listed as “neither isoquinoline 17 nor quinoline 23 produced a significant increase”. Also, in the data set on HaCaT cells [9] (6 hours), the “GCLC mRNA expression” value is “significant increase”, the “GCLM mRNA expression” value is reported as “significant increase” and the “HMOX1 mRNA expression” value is reported as “significant increase”. Besides, the “NQO1 mRNA expression” value in the data set on HaCaT cells [9] (24 hours) is “increase”. In the data set with HaCaT cells [5] (24 h, vs vehicle), the GCLM protein level result is “significantly higher”, the NQO1 protein level result was “Increased” and the NRF2 protein level entry was “Increased”. Moreover, in [7], the “Cytotoxicity in Mini-Ames assay” value is given as “No cytotoxicity” and the Mutagenicity judgement result is on record as “better mutagenic profile than naphthalene 6a”. Besides, the “Dose response of revertant increase” value in data set [8] is “No dose response was observed”.
In the case of `COc1ccc(S(=O)(=O)N(CC(=O)O)c2ccc(N(CC(=O)O)S(=O)(=O)c3ccc(OC)cc3)c3ncccc23)cc1` [Compound 23], the “SOD mRNA expression (not an NRF2 target gene)” value with HaCaT cells [9] is on record as “neither isoquinoline 17 nor quinoline 23 produced a significant increase”. Further, in the data set with HaCaT cells [9] (6 and 24 hours), the “GCLC mRNA expression” value is on record as “small increase”, the “GCLM mRNA expression” value was “small increase”, the “HMOX1 mRNA expression” value was “no increase” and the “NQO1 mRNA expression” value is listed as “small increase”. Also, in the data set with HaCaT cells [5] (6 h, vs DMSO), the NQO1 protein level entry is “modest increase” and the NRF2 protein level entry is on record as “modest increase”. For the same molecule, in the data set with HaCaT cells [5] (24 h, vs vehicle), the GCLM protein level result is on record as “modestly increased”, the NQO1 protein level entry is “no effect” and the NRF2 protein level result is listed as “no effect”. In addition, the “NRF2 accumulation in the nucleus” value with HaCaT cells [10] is given as “small significant increase; also recorded: modest increase”.
